Patent publication US7241745B2, “Pyridyl alkene and pyridyl alkine acid amides as cytostatics and immunosupressives” (Astellas Pharma GmbH, priority 1996, dated 2007)

Experiments:
[1] = test system: freshly isolated lymphocytes from the spleen of a Swiss mouse; test: Immunosuppressing activity: vitality of freshly isolated spleen lymphocytes by flow-through cytometry after 2 days; assay type: cell-based; details: Lymphocyte, 48 h, 2 days incubation, flow-through cytometer, read-out: IC50 (percentage amount of vital cells)
Excerpt: Many anti-tumor agents have not only a cytotoxic effect on tumor cells, but also on the blood cell system. This leads to a weakening of the immune defense, which can, in turn, be specifically employed to suppress the rejection reaction after an organ transplantation for example. Therefore, a use of the main compounds, optionally in combination with other compounds effective for these indications is suitable in diseases such as psoriasis or autoimmune diseases. In order to test the possibility for a therapeutic use in illnesses of this type, the substance activity was tested on freshly isolated lymphocytes as follows:
The spleen of a Swiss mouse served as a lymphocyte source. The lymphocyte population was isolated from the spleen cell suspension over a ficoll gradient and taken up in IMEM-ZO culture medium with 0,1% dextran 70,000 and 2% fetal calf serum. […] Subsequently, 10,000 cells per each sample were measured on a flow-through cytometer and the percentage amount of vital cells in the population was determined. By means of the dose-response curves, IC50-values were calculated which were also employed in the following Tables for the characterization of the individual substances: […]

HepG2 cells = test: Growth inhibition of HepG2 cells, sulforhodamin-B protein determination after six days of incubation; assay type: cell-based; details: Homo sapiens, 144 h, six days of substance incubation, sulforhodamin-B-method, read-out: IC50-value (concentration in which the cell growth was inhibited by 50%)
Method: The tumor growth inhibiting activity of the substances was determined on human tumor cells in standardized in vitro test systems. In the screening tests, the substances gave IC50-values in a concentration range of 0.1 nM to 10 μM.
HepG2 cells plated at a 20,000 cell/ml in 12-well plastic dishes. Cultivation occured in Richters IMEM-ZO nutrient medium with 5% fetal calf serum (FCS) in a tissue culture incubator with a gas mixture of 5% CO2 and 95% air at a temperature of 37° C. One day after plating, the culture medium was aspirated from the cells and replaced by fresh medium which contained the respective concentrations of the test substances. For the individual concentrations and the controls without test substances, three-fold batches were done for each. Three days after the beginning of treatment, the medium was again renewed with the test compounds. After six days of substance incubation, the test was ended and the protein amount in the individual wells was determined with the sulforhodamin-B-method (according to P. Skehan et al.: New Colorimetric Cytotoxicity Assay for Anticancer-Drug Screening. J. Natl. Cancer Inst. 82: 1107–1112, 1990). The IC50-values (defined as that concentration in which the cell growth was inhibited by 50%) was taken from the dose-response curves and given as a comparative measurement for the activity of the test compounds.

Row | SMILES | melting point [°C] | IC50 [1] [nM] | IC50 (HepG2 cells) [nM]
1 | O=C(C=Cc1cccnc1)NCCCCC1CCN(S(=O)(=O)c2ccc3ccccc3c2)CC1 [compound 219, N-{4-[1-(2-naphthyl-sulfonyl)-piperidin-4-yl]-butyl}-3-(pyridin-3-yl)-acrylamide] | 85 to 87 | – | –
2 | O=C(C=Cc1cccnc1)NCCCCC1CCN(C(=O)C(c2ccccc2)c2ccccc2)CC1 [compound 150, N-[4-(1-diphenylacetyl-piperidin-4-yl)-butyl]-3-(pyridin-3-yl)-acrylamide] | 161 | – | –
3 | O=C(C=CC=Cc1cccnc1)NCCCCC1CCN(C(c2ccccc2)c2ccccc2)CC1 [compound 70, N-[4-(1-diphenylmethyl-piperidin-4-yl)-butyl]-5-(pyridin-3-yl)-2,4-pentadienoic acid amide] | 164 to 166 | – | –
4 | O=C(C=Cc1cccnc1)NCCCCC1CCN(C2c3ccccc3CSc3ccccc32)CC1 (stereo not shown) [compound 136, N-{4-[1-(6,11-dihydro-dibenzo [b,e]thiepin-11-yl)-piperidin-4-yl]-butyl}-3-(pyridin-3-yl)-acrylamide] | 89 to 91 | – | –

The remaining lines, values ahead:

Row | melting point [°C] | IC50 [1] [nM] | IC50 (HepG2 cells) [nM] | SMILES
5 | 198 to 200 | – | – | O=C(C=Cc1cccnc1)NCCCCC1CCN(C(=O)Nc2cccc3ccccc23)CC1 [compound 195, N-{4-[1-(1-naphthylaminocarbonyl)-piperidin-4-yl]-butyl}-3-(pyridin-3-yl)-acrylamide]
6 | – | 3 | 0.5 | O=C(C=Cc1cccnc1)NCCCCC1CCN(C(=O)c2ccccc2)CC1 [compound 159, N-[4-(1-benzoylpiperidin-4-yl)-butyl]-3-(pyridin-3-yl)-acrylamide]
